Measurements published in US9758541B2 (priority 2013, dated 2017).

Legend:
[1] = test system: MDA-MB-231 cells (non-hormone-dependent breast cancer cells); format: cell-based
[2] = test system: Mia-PaCa cells (pancreatic cancer cells); conditions: read-out: IC50 (μM) of P53, Table 2, 72 h exposure, MTS
[3] = test system: PC3 cells (non-hormone-dependent prostate cancer cells); conditions: read-out: IC50 (μM) of P53, Table 2, 72 h exposure, MTS

## 2,3-Dihydro-3-hydroxy-2-[4-ferrocenyl-5,5-bis-(4-hydroxyphenyl)-pent-4-enyl]-1H-isoindol-1-one [P710]
[1]
  IC50: 0.59 µM

## 2-ferrocenyl-1,1-bis-(4-hydroxyphenyl)-5-dimethylamino-pent-1-ene [P697]
[1]
  IC50: 2.53 µM

## N-{5-ferrocenyl-6,6-bis-(4-hydroxyphenyl)-hex-5-enyl}phthalimide [P720]
[1]
  IC50: 0.33 µM

## 2,3-Dihydro-3-methoxy-2-[5-ferrocenyl-6,6-bis-(4-hydroxyphenyl)-hex-5-enyl]-1H-isoindol-1-one [P727]
[1]
  IC50: 1.63 µM

## 1,1-bis-(4-hydroxyphenyl)-5-hydroxy-2-ruthenocenyl-pent-1-en [W3]
[1]
  IC50: 12.5 µM

## 2-ferrocenyl-1-(4-hydroxyphenyl)-5-hydroxy-1-phenyl-pent-1-ene [P681]
[1]
  IC50: 1.22 µM

## 2-ferrocenyl-1,1-bis-(4-hydroxyphenyl)-5-hydroxy-pent-1-ene [P53]
[2]
  IC50: 1.23 µM
[3]
  IC50: 4.43 µM

## N-{4-ferrocenyl-5,5-bis-(4-hydroxyphenyl)-pent-4-enyl}phthalimide [P686]
[1]
  IC50: 0.2 µM

## Methyl 6-ene-6-ferrocenyl-7,7-bis-(4-hydroxyphenyl)-heptanoate [P504]
[1]
  IC50: 0.62 µM

## Ethyl 3-ene-3-ferrocenyl-4,4-bis-(4-hydroxyphenyl)-butanoate [P64]
[1]
  IC50: 1.16 µM
